BindingDB's records for doi:10.1016/j.chembiol.2016.06.016 (Massachusetts Institute of Technology, 2016)

Experiments:
[1] = target: Cytochrome b (Homo sapiens, UniProt P00156); assay: Cytochrome b Enzyme Assay; conditions: pH 7.4; 25 °C
Protocol: (§1) Reaction plates were incubated at room temperature for 10 min before reading absorbance at 550 nm. Absolute IC50 values were calculated in GraphPad Prism 6.0.

[2] = target: T1, Cytochrome b (Candida albicans, UniProt I2BJW5); assay: Cytochrome b Enzyme Assay; conditions: pH 7.4; 25 °C
T1 sequence (I2BJW5 whole entry): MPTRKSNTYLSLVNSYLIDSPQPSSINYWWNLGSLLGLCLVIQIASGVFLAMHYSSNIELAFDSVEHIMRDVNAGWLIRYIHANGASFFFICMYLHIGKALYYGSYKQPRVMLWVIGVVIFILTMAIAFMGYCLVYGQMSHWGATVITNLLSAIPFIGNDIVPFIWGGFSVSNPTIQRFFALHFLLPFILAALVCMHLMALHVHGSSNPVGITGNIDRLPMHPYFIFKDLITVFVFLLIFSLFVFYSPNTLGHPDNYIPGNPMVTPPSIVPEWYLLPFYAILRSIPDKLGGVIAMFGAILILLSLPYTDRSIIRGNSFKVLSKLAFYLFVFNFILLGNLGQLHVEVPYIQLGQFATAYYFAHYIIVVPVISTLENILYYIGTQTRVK
Protocol: as §1

Chain of Cytochrome b (Homo sapiens, UniProt P00156) (P00156 whole entry): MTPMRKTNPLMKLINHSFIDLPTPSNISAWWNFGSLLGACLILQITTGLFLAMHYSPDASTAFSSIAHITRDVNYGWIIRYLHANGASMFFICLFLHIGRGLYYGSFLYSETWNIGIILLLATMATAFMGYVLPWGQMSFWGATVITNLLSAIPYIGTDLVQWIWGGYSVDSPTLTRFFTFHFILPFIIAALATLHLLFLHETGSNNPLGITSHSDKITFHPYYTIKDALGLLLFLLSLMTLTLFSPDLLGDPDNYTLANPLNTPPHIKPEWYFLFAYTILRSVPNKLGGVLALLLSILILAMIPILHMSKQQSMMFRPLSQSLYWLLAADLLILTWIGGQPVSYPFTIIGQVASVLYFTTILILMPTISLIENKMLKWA

IC50 [1]	IC50 [2]	SMILES
28.1 µM	0.981 µM	CCOc1cccc(-c2nn(CC(=O)OC)c3ccccc23)c1 [Inz-40]
> 64 µM	3.57 µM	COC(=O)Cn1nc(-c2ccccc2O)c2ccccc21 [Inz-52]
> 64 µM	> 64 µM	FC(F)(F)Cn1nc(-c2ccccc2)c2ccccc21 [Inz-28]
> 64 µM	> 64 µM	COC(=O)Cn1nc(-c2ccncc2)c2ccccc21 [Inz-92]
> 64 µM	> 64 µM	CON(C)C(=O)Cn1nc(-c2ccccc2)c2ccccc21 [Inz-26]
> 64 µM	> 64 µM	c1ccc(-c2nn(Cc3c[nH]nn3)c3ccccc23)cc1 [Inz-79]
> 64 µM	5.91 µM	COC(=O)Cn1nc(-c2cccc(F)c2)c2ccccc21 [Inz-70]
> 64 µM	> 64 µM	c1ccc(-c2nn(Cc3nccs3)c3ccccc23)cc1 [Inz-30]
> 64 µM	> 64 µM	O=C(Cn1nc(-c2ccccc2)c2ccccc21)NO [Inz-88]
28.4 µM	1.52 µM	COC(=O)Cn1nc(-c2cccc(OC)c2)c2ccccc21 [Inz-6]

More lines, now with the values behind:

SMILES	IC50 [1]	IC50 [2]
Fc1ccc(C(F)(F)F)cc1-c1nn(Cc2cnccn2)c2c(F)cccc12 [Inz-39]	10.8 µM	0.141 µM
COC(=O)Cn1nc(-c2cccc(OCCc3ccccc3)c2)c2ccccc21 [Inz-8]	13.9 µM	0.346 µM
N#Cc1cccc2c(-c3cc(C(F)(F)F)ccc3F)nn(Cc3cnccn3)c12 [Inz-96]	> 64 µM	22.7 µM
CC(=O)Nc1ccc2c(-c3cc(C(F)(F)F)ccc3F)nn(Cc3cnccn3)c2c1 [Inz-101]	> 64 µM	> 64 µM
COC(=O)Cn1nc(-c2cccc(OCCC(C)(C)C)c2)c2ccccc21 [Inz-74]	4.72 µM	0.657 µM
CCC(=O)Cn1nc(-c2cccc(OCc3ccccc3)c2)c2ccccc21 [Inz-43]	> 64 µM	22.8 µM
COC(=O)Cn1nc(-c2cc(C(F)(F)F)ccc2F)c2c(C(F)(F)F)cccc21 [Inz-22]	> 64 µM	46.8 µM
COC(=O)Cn1c(C)c(-c2cccc(OCc3ccccc3)c2)c2ccccc21 [Inz-56]	> 64 µM	> 64 µM
COC(=O)Cn1nc(-c2cc(F)ccc2C)c2ccccc21 [Inz-62]	> 64 µM	4.7 µM
COC(=O)Cn1nc(-c2cccc(OCCC34CC5CC(CC(C5)C3)C4)c2)c2ccccc21 [Inz-75]	1.08 µM	1.14 µM
Cc1cccc2c(-c3cc(C(F)(F)F)ccc3F)nn(Cc3cnccn3)c12 [Inz-38]	> 64 µM	0.602 µM
c1ccc(-c2nn(Cc3cncnc3)c3ccccc23)cc1 [Inz-93]	> 64 µM	> 64 µM
COC(=O)Cn1nc(-c2cc(C(F)(F)F)ccc2F)c2ccccc21 [Inz-2]	4.62 µM	0.145 µM
COC(=O)Cn1nc(-c2ccc(CCc3ccccc3)cc2)c2ccccc21 [Inz-53]	> 64 µM	43.4 µM
c1ccc(-c2nn(Cc3nn[nH]n3)c3ccccc23)cc1 [Inz-33]	> 64 µM	> 64 µM
Fc1ccc(C(F)(F)F)cc1-c1nn(Cc2cnccn2)c2ncccc12 [Inz-97]	54.4 µM	0.935 µM
COC(=O)Cn1nc(-c2cccc(OCC3CCCCC3)c2)c2ccccc21 [Inz-9]	0.889 µM	0.087 µM
COC(=O)Cn1cc(-c2cccc(OCc3ccccc3)c2)c2ccccc21 [Inz-50]	> 64 µM	13.1 µM
COC(=O)Cn1nc(-c2cccc(C(F)(F)F)c2)c2ccccc21 [Inz-10]	8.65 µM	1.06 µM
Fc1ccc(C(F)(F)F)cc1-c1nn(Cc2cnccn2)c2ccccc12 [Inz-94]	35.1 µM	0.449 µM
COC(=O)Cn1nc(-c2cc(C(F)(F)F)ccc2F)c2c(C)cccc21 [Inz-23]	> 64 µM	10.8 µM
